# How the values were obtained:
# [1] = system: USP10 phosphorylation (PIKKs/ATM); test: USP10 phosphorylation at SQ/TQ motifs after DNA damage (FLAG-USP10 IP, pSQ/TQ blot) in HCT116 cells; type: cell-based; conditions: Ku55933, 2 hours pretreatment; 10 Gy radiation; HCT116 cells with FLAG-USP10
# Protocol: Forty-eight hours later, the cells were left untreated or treated with 10 Gy radiation, 40 J/m^2 UV, or 20 mM etoposide. After an additional 1 hour, the cells were harvested. Cell lysates were subjected to immunoprecipitation with anti-FLAG antibody and immunobloted with phospho-SQ/TQ (pSQ/TQ) antibody. […] After 2 hours of incubation, cells were left untreated or treated with 10 Gy radiation. The phosphorylation of USP10 was examined as in (FIG. 6C). […] Cells were left untreated or treated with 10 Gy radiation. USP10 phosphorylation was examined by pSQ/TQ antibody.
# Cells were lysed with NETN buffer (20 mM Tris-HCl, pH 8.0, 100 mM NaCl, 1 mM EDTA, 0.5% Nonidet P-40) containing 50 mM β-glycerophosphate, 10 mM NaF, and 1 mg/mL each of pepstatin A, and aprotinin. Whole cell lysates obtained by centrifugation were incubated with 2 μg of antibody and protein A or protein G Sepharose beads (Amersham Biosciences) for 2 hours at 4° C. The immunocomplexes were then washed with NETN buffer three times and separated by SDS-PAGE. Immunoblotting was performed following standard procedures.
# USP10 polypeptide = target: T1, USP10 polypeptide (Homo sapiens, UniProt Q14694); test: Ub-AMC deubiquitination assay with USP10 polypeptide; type: biochemical; conditions: USP10 4 μg/mL, Ub-AMC 300 nmol/L, vs DMSO, p<0.01
# T1 construct: His; made in house; host or cells: E. coli BL21 (pET-28a vector)
# Protocol: FIG. 17A is a concentration curve graph plotting the level of deubiquitination of Ub-AMC observed following incubation with the indicated amounts of USP10 polypeptide (μg). FIG. 17B is a graph plotting the level of deubiquitination of Ub-AMC in the presence (right) or absence (left) of 4 μg/mL of USP10 polypeptides and the indicated compound.
# Briefly, the amount of Ub-AMC deubiquitination in vitro increased as the concentration of USP10 polypeptides increased (FIG. 17A).
# N-ethylmaleimide (1 mM), Z-phe-ala fluoromethyl ketone ([…] dihydrochloride (10 μg/mL), E-64 (10 μM), chymostatia ([…] fluoride (40 μM), E-64d (0.5 μM), and cystatin (36 μg/mL) were tested for the ability to inhibit USP10 polypeptide activity using USP10 polypeptide (4 μg/mL) and Ub-AMC (300 nmol/L). Briefly, both enzyme (USP10 polypeptide) and substrate (Ub-AMC) were freshly prepared in USP10 reaction buffer (50 mmol/L Tris-HCl (pH 7.6), 0.5 mmol/L EDTA, 5 mmol/L DTT, 0.01% Triton X-100, and 0.05 mg/mL serum albumin) for each run. Each well (except substrate control wells) in a typical assay contained 4 μg/mL of USP10, the compound, or 2% DMSO. The wells were incubated for 30 minutes to attain equilibrium, and the enzymatic reaction was then initiated by adding the substrate (300 nmol/L of Ub-AMC). […]
# T1 sequence (Q14694 whole entry): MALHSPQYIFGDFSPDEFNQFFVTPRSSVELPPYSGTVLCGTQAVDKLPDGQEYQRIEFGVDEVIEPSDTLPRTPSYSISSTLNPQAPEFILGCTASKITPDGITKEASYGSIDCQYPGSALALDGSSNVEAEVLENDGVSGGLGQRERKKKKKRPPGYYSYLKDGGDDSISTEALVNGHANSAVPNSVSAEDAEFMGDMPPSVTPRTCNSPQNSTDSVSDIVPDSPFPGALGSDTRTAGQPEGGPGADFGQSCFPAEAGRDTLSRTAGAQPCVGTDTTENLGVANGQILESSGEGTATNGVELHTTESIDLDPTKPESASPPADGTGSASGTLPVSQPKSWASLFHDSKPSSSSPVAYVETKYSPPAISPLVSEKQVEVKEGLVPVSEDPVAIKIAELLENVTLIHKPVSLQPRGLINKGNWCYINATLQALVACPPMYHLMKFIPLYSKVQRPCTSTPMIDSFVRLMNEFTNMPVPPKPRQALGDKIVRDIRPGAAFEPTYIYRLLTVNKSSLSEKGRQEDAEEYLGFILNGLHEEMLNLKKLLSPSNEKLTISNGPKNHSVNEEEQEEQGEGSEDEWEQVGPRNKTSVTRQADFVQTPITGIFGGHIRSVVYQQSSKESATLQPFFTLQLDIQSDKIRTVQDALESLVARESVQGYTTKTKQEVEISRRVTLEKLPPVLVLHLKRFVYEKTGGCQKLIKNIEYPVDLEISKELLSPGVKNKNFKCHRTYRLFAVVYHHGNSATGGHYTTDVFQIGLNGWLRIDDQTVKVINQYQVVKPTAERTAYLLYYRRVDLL
compound,measurement,setting,value
O=c1cc(-c2cccc3c2Sc2ccccc2S3)oc(N2CCOCC2)c1 [KU55933],USP10 phosphorylation after IR,[1],inhibited
CCN1C(=O)C=CC1=O [N-ethylmaleimide],deubiquitinating activity of USP10 polypeptides,USP10 polypeptide; compound 1 mM,significantly inhibited
C[C@H](NC(=O)[C@H](Cc1ccccc1)NC(=O)OCc1ccccc1)C(=O)CF [Z-phe-ala fluoromethyl ketone],deubiquitinating activity of USP10 polypeptides,USP10 polypeptide; compound 80 μM,significantly inhibited

# — patent publication US10137174B2, “Methods and materials for treating cancers that express reduced levels of wild-type p53 polypeptides” (Mayo Foundation for Medical Education and Research, priority 2009, dated 2018)
